The structures appear in SMILES notation.

One compound from patent publication US20230348415A1, “BISPECIFIC ANTAGONISTS OF RETINOL-BINDING PROTEIN 4 THAT STABILIZE TRANSTHYRETIN TETRAMERS, THEIR PREPARATION, AND USE IN THE TREATMENT OF COMMON AGE-RELATED COMORBIDITIES” (The Trustees of Columbia University in the City of New York, priority 2020, published 2023) can be followed below.

The target of one data set is serum RBP4 (Mus musculus (Mouse), UniProt Q00724). The data set is described as follows: Serum RBP4 measurement after a single oral dose in mice. Format: in vivo. On the procedure:
FIG. 5. Pharmacokinetic and pharmacodynamic properties of (±)-44 in mice. (A) Serum RBP4 levels following a single 25 mg/kg oral administration of (±)-44. (B) Blood compound levels following administration of a single oral 5 mg/kg dose of (±)-44. Data represented as the mean±SD. Three mice per treatment group were used in the study.
Blood samples were collected from a tail vein. Whole blood was drawn into a centrifuge tube and was allowed to clot at room temperature for 30 minutes followed by centrifugation at 2000 g for 15 minutes at […] to collect serum. Aliquots of plasma samples collected in the mouse pharmacokinetic study were analyzed for the RBP4 concentration using the RBP4 (mouse/rat) dual ELISA kit (AdipoGen, San Diego, CA) following the manufacturer's instructions. In adi-hRBP4 transgenic mouse experiments, blood samples were collected from a tail vein. […] Mouse serum RBP4 (produced predominantly in the liver) was measured using the RBP4 (mouse/rat) dual ELISA kit (AdipoGen, San Diego, CA; catalog number AG-45A-0012YTP-KI01)

Data set [1] in a line: Metabolic stability and clearance in mouse liver microsomes. Format: in vitro ADME. The following applies: 30 minute incubation. On the procedure:
The results of metabolic stability determinations for novel compounds and testosterone (positive control) were conducted in the presence of human, rat, mouse, and monkey liver microsomes. Values shown are percent of parent remaining after a 30 minute incubation. All measurements were done in duplicate. Assay results for testosterone were within an acceptable range.
Mixed-gender human liver microsomes (Lot #1710084), male Sprague-Dawley rat liver microsomes (Lot #1610290), male CD-1 mouse liver microsomes (Lot #1710069), and male Cynomolgous liver microsomes (Lot #1510193) were purchased from XenoTech. The reaction mixture, minus NADPH, was prepared as described below. The test article was added into the reaction mixture at a final concentration of 1 μM. The control compound, testosterone, was run simultaneously with the test article in a separate reaction. An aliquot of the reaction mixture (without cofactor) was equilibrated in a shaking water bath at 37° C. for 3 minutes. The reaction was initiated by the addition of cofactor, and the mixture was incubated in a shaking water bath at 37° C. Aliquots (100 μL) were withdrawn at 0, 10, 20, 30, and 60. […] Half-lives were calculated using GraphPad software, fitting to a single-phase exponential decay equation.

The nature of data set [2]: In vivo PK in CD-1 mice (IV and PO). Further details: species or system mouse. To be noted: male CD-1 mice. On the procedure:
• IV dosing vehicles: 3% DMA/45% PEG300/12% ethanol/40% sterile water • PO dosing vehicle: 2% Tween 80 in 0.9% saline • Dose formulation: The dose formulation was prepared by the step-wise addition (in the order listed) of the individual components of the vehicle to a weighed quantity of test compound in a volume that yielded the desired final concentration. Each formulation was prepared by mixing a weighed quantity of test compound with the appropriate volume of vehicle. • Dosing Solution Analysis: The dosing solutions were analyzed by LC-MS/MS. The dosing solutions were diluted into mouse blood and analyzed in triplicate. All concentrations are expressed as mg/mL of the free base. The nominal dosing level was used in all calculations for Group 1.
• Species and strain: mouse; male CD-1 • Mean weight: 0.034 kg for the IV arm; 0.027 kg for PO arm • Number: 6 animals total (three animals per dosing group (Group 1 (IV) and Group 2 (PO)), per study) • COMPLIANCE: This non-clinical study followed established practices and standard operating procedures of Absorption Systems as well as the study protocol. This study was exploratory in nature and was not conducted in accordance with the principles set forth in the United States Food and Drug Administration (FDA) Good Laboratory Practice (GLP) Regulations, 21 Code of Federal regulations (CFR) Part 58. The report is archived in a validated scientific data management system. Electronic signatures comply with the regulation 21 CFR Part 11.
Blood was collected from mice at pre-dose and at 5, 15 and 30 min, and 1, 2, 4, 8, 24 and 48 h post-dose. Hemolyzed blood samples were extracted by protein precipitation using acetonitrile. Following protein extraction with acetonitrile, compound levels were measured by LC-MS/MS. Pharmacokinetic parameters were calculated from the time course of the blood concentrations. Pharmacokinetic parameters were determined with Phoenix WinNonlin (v8.0) software using a non-compartmental model. The maximum blood concentrations (CO) after IV dosing were estimated by extrapolation of the first two time points back to t=0. The maximum blood concentration (Cmax) and the time to reach maximum blood concentration (tmax) after PO dosing were observed from the data. The area under the time concentration curve (AUC) was calculated using the linear trapezoidal rule with calculation to the last quantifiable data point, and with extrapolation to infinity if applicable. Blood half-life (t ½) was calculated from 0.693/slope of the terminal elimination phase. Mean residence time, MRT, was calculated by dividing the area under the moment curve (AUMC) by the AUC. Clearance (CL) was calculated from dose/AUC. Steady-state volume of distribution (Vss) was calculated from CL*MRT. Bioavailability was determined by dividing the individual dose normalized PO AUC∞ values by the average dose-normalized IV AUC∞ value. Any samples below the limit of quantitation (1.00 ng/mL) were treated as zero for pharmacokinetic data analysis.

In the next data set the target is RBP4-TTR interaction (Homo sapiens (Human), UniProt P02753). The data set can be described thus: HTRF RBP4-TTR interaction assay. Format: biochemical. To be noted: 1 μM retinol; read-out: RBP4-TTR HTRF IC50. On the procedure: HTRF Cryptate labeling kit from CisBio (Cisbio, cat #62EUSPEA, Bedfored, MA) was used to label TTR with Eu^3+ Cryptate. The assay was performed in a final assay volume of 16 μl in the buffer that contained 10 mM Tris-HCl pH 7.5, 1 mM DTT, 0.05% NP-40, 0.05% Prionex, 6% glycerol, and 400 mM KF. […] All of the reactions were performed under dim red light in the dark. The plates were read in the SpectraMax M5e Multimode Plate Reader (Molecular Devices, Sunnyvale, CA) after the overnight incubation at 4° C. […] The HTRF signal was expressed as the ratio of fluorescence intensity: Flu668/Flu620×10,000.

As to `Cc1cc(C(=O)O)nc(N2CCC(COc3ccccc3C(F)(F)F)C2)n1` (racemic) [Compound (±)-44, (±)-6-Methyl-2-(3-((2-(trifluoromethyl)phenoxy)methyl)pyrrolidin-1-yl)pyrimidine-4-carboxylic Acid], the “effect on serum TTR levels” value at serum RBP4 (compound dosing in mice, data not shown) is recorded as “no effect”. Further, the “maximum reduction in serum RBP4” value on serum RBP4 (single 25 mg/kg oral dose, 6 h after dose) is on record as 81%. At serum RBP4 (single 25 mg/kg oral dose, 24 h), the “reduction in serum RBP4 at the 24 h time point” value is recorded as 64%. Also, the “Liver Microsomal Stability (% remaining at 30 min), MLM” value in data set [1] amounted to 95%. The compound further returned a CL in data set [2] (IV 2 mg/kg) of 0.832 mL/min/kg. Moreover, in data set [2] (PO 5 mg/kg), the AUCINF is 52439 ng·h/mL and the t1/2 is 9.9 h. In data set [2] (mouse, whole blood, IV 2 mg/kg), this compound showed an AUC(0-inf) of 40300 ng·h/mL, an AUC(0-t) of 39500 ng·h/mL, a clearance of 0.832 mL/min/kg and a half-life of 8.6 h. The compound also yielded a C0 in data set [2] (mouse, whole blood, IV 2 mg/kg, blood) of 9130 ng/mL. Further, the Vd in data set [2] (mouse, whole blood, IV 2 mg/kg, read-out: Vss) is 0.518 L/kg. This compound also returned a bioavailability in data set [2] (mouse, whole blood, PO 5 mg/kg vs IV 2 mg/kg) of 52%. Moreover, in data set [2] (mouse, whole blood, PO 5 mg/kg), the AUC(0-inf) turned out to be 52400 ng·h/mL, the AUC(0-t) was found to be 50400 ng·h/mL, the time of peak concentration (Tmax) is 0.83 h and the half-life is 9.9 h. In data set [2] (mouse, whole blood, PO 5 mg/kg, blood), this compound displayed a Cmax of 3030 ng/mL. Moreover, on RBP4-TTR interaction, the IC50 is 250 nM.
